Reference: patent publication US20230381142A1, “ANTILEISHMANIAL COMPOUNDS, COMPOSITIONS AND USE THEREOF” (TRUSTEES OF BOSTON UNIVERSITY, priority 2022, published 2023)
≈ marks a conversion by molar mass, not a printed value. Blank lines part the entries; values can stand above or below the compound they belong to.

Experiments:
[1] = UCSD infection assay, host cell cytotoxicity (CC50); type: cell-based; settings: mouse, B10R host cells infected with L. donovani
Description: (§1) Assay Conditions D: B10R cells (CVCL_0155) were seeded at 300 cells/well, and L. donovani WT promastigotes in stationary phase (7th day after passage) were added at 6,000 parasites/well (ratio of 20 parasites/cell). Both cells and parasites were seeded in DMEM High-Glucose medium (Gibco, cat. no. 11995065) containing 5% Fetal Bovine Serum (Sigma-Aldrich, cat. no. F2442) and 1% Penicillin-Streptomycin (Gibco, cat. no. 15140122). Cells and parasites were incubated in the presence of the compounds for 72 h at 37° C. and 5% C02. Plates were then fixed with 4% formaldehyde solution for at least 1 h, then washed with 1×PBS and stained with 5 μg/mL DAPI. Plates were read using an ImageXpress microscope (Molecular Devices) and analyzed by MetaXpress software (Molecular Devices) using a custom module optimized for this assay. […] Compounds were tested in a 10-point 2-fold serial dilution in 3 technical replicates, and 2 biological replicates. After 72 h, plates were fixed and stained with DAPI as described above. Images were acquired on an ImageXpress microscope, and analyzed using the MetaXpress custom module.
as §1, with “Compounds were obtained as 0.2 μmoles of dried film for primary single point screening. Each compound was diluted in DMSO to 10 μM final testing concentration. These compounds were tested in 2 biological replicates. The compounds were pre-spotted onto 384-well assay plates in single concentration.” for “Assay Conditions D:”, “CO2.” for “C02.”, “module. The DRCs were plotted, half-effective concentration (EC50) and half-cytotoxic concentration (CC50) were calculated using GraphPad Prism Software, version 6.05 (GraphPad Software, San Diego, CA).” for “module.”

[2] = system: L. donovani intracellular amastigotes in B10R cells; assay: UCSD L. donovani infection assay (Assay Conditions D); type: cell-based; settings: for IC50: Leishmania donovani
How it was run: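 B10R cells (300/well) infected with stationary-phase L. donovani WT promastigotes at 20 parasites/cell in DMEM high-glucose, 5% FBS, with compounds 72 h at 37° C., 5% CO2. Formaldehyde-fixed, DAPI-stained, imaged by high-content microscopy; 10-point 2-fold dilutions (screen at 10 μM) gave EC50 and host CC50.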

HepG2 cells = assay: HepG2 cytotoxicity; type: cell-based; settings: Homo sapiens; toxicity against HepG2 cells
[3] = Artificial membrane permeability (AMP); type: in vitro ADME; settings: PAMPA, pH 7.4
How it was run: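 Passive permeation through 1.8% phosphatidylcholine in 1% decane membrane, 50 mM phosphate buffer pH 7.4 on donor and receiver sides. After 45 min pre-shaking, compounds incubated 3 h at room temperature with shaking, in duplicate; donor and receiver solutions quantified by LC/MS.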

host THP-1 macrophages = assay: GSK inMac assay, host cell toxicity readout (LD MAC); type: cell-based, human; settings: Homo sapiens, THP-1, cytotoxicity against host THP-1 macrophages
How it was run: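 Intramacrophage L. donovani assay in THP-1 macrophages; host toxicity taken from host cell number per well, giving MAC EC50. Run alongside amastigote-per-cell and infected-cell readouts in the same wells.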

[4] = Kinetic aqueous solubility by CLND; type: physicochemical; settings: kinetic from dmso stock, high-throughput CLND
Description: Solubility of compounds using ChemiLuminescent Nitrogen Detection (CLND) was measured as described. Solubility of compounds using Charged Aerosol Detection (CAD) was measured as described. Solubility of solid compounds in Fasted Simulated Intestinal Fluid (FaSSIF) was measured as described.

[5] = Property forecast index (PFI = ChromLogD7.4 + aromatic rings); type: physicochemical
human serum albumin = human serum albumin (Homo sapiens, UniProt P02768); assay: Human serum albumin (HSA) binding, chromatographic; type: in vitro ADME
Sequence of human serum albumin (P02768 25-609): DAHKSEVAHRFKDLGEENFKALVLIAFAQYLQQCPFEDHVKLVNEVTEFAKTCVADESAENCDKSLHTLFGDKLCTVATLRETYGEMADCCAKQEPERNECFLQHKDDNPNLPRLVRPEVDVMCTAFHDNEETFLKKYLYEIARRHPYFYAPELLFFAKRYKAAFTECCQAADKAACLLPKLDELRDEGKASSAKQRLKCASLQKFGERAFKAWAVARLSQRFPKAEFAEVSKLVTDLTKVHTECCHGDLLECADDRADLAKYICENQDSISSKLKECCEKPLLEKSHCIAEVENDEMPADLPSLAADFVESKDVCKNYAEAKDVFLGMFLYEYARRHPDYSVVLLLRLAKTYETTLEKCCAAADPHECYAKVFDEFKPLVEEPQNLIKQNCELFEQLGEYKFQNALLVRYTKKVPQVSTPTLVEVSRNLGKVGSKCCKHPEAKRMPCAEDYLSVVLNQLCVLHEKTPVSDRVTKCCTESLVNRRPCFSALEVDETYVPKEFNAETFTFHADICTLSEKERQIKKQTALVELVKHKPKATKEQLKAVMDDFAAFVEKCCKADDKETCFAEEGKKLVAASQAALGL
Description: The percentage of compound bound to human serum albumin was measured using a chromatographic method as described. Briefly, each compound was assayed on an immobilized HSA column and gradient retention times measured, with chromatographic peak detection by UV. Each retention time was then converted to a % HSA bound value using a calibration set of compounds with a known % HSA binding.

[6] = system: L. donovani intracellular amastigotes infecting THP-1 macrophages; assay: GSK intramacrophage L. donovani assay (LD AMMAC, inMac; Assay Conditions C); type: cell-based; settings: Leishmania donovani; for IC50: THP-1; for EC50: growth inhibition of L. donovani intracellular amastigotes infecting THP-1 macrophages, read-out: LD AMMAC EC50
How it was run: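 L. donovani amastigotes within THP-1 macrophages; EC50 based on average intracellular amastigotes per infected cell (AMMAC). Infected-cell percentage (INFCELL) and host-cell number (MAC) also read, the latter as toxicity output.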

[7] = aqueous medium (not further specified)

Compound: Cc1ccc(N2C(=O)c3[nH]nc(CC(C)C)c3C2c2ccc(F)cc2Cl)cn1 (centres unmarked) [BUCMD00642]
- CC50 at 72 h ([1]; host B10R cells): 10 µM
- L. donovani amastigotes EC75 (μM, B10R cells) ([2]; B10R cells): 1.3 µM

Compound: COc1ccc(N2C(=O)c3[nH]nc(CC(C)C)c3C2c2ccccc2Cl)cc1 (centres unmarked) [Compound 55, 4-(2-chlorophenyl)-3-isobutyl-5-(4-methoxyphenyl)-4,5-dihydropyrrolo[3,4-c]pyrazol-6(1H)-one]
- EC50 (HepG2 cells): 31.6 µM
- Papp at 3 h [3]: 33 ×10⁻⁶ cm/s
- EC50 (host THP-1 macrophages): 20 µM
- solubility [4, 7]: 30 µM (≈ 11.9 µg/mL)
- PFI [5]: 8.8
- IC50 [2]: 0.2 µM
- HSA Binding (human serum albumin): 97.8%
- IC50 [6]: 1.3 µM
- EC50 [6]: 1.3 µM

Compound: COc1ccc(N2C(=O)c3[nH]nc(CC(C)C)c3C2c2ccccc2Cl)nc1 (centres unmarked) [BUCMD00647]
- CC50 at 72 h ([1]; host B10R cells): 10 µM
- L. donovani amastigotes EC75 (μM, B10R cells) ([2]; B10R cells): >10 µM

Compound: CC(C)Cc1n[nH]c2c1C(c1ccccc1C(F)(F)F)N(c1ccc(N3CCN(C)CC3)nc1)C2=O (centres unmarked) [BUCMD00723]
- CC50 at 72 h ([1]; host B10R cells): 7.94 µM
- L. donovani amastigotes EC75 (μM, B10R cells) ([2]; B10R cells): 10.0 µM

- Papp at 3 h [3]: 16 ×10⁻⁶ cm/s
- solubility ([4]; aqueous (not further specified)): 33 µM (≈ 13 µg/mL)
- PFI [5]: 9.0
- IC50 [2]: 0.2 µM
- HSA Binding (human serum albumin): 96.1%
- IC50 [6]: 1 µM
- EC50 [6]: 1 µM
Compound: CC(C)Cc1n[nH]c2c1C(c1ccc(F)cc1)N(c1ccc(N(C)C)cc1)C2=O (centres unmarked) [Compound 21, 5-(4-(dimethylamino)phenyl)-4-(4-fluorophenyl)-3-isobutyl-4,5-dihydropyrrolo[3,4-c]pyrazol-6(1H)-one]
- EC50 (HepG2 cells): 50.1 µM
- EC50 (host THP-1 macrophages): 39.8 µM

Compound: COc1ncc(N2C(=O)c3[nH]nc(CC(C)C)c3C2c2ccc(F)cc2Cl)cc1F (centres unmarked) [BUCMD00730]
- CC50 at 72 h ([1]; footnote d): 10 µM
- L. donovani amastigotes EC75 (B10R cells) ([2]; B10R cells, footnote d): 0.6 µM

Compound: CC(C)Cc1n[nH]c2c1C(c1ccc(F)cc1)N(c1ccc3c(c1)OCO3)C2=O (centres unmarked) [Compound 44, 5-(benzo[d][1,3]dioxol-5-yl)-4-(4-fluorophenyl)-3-isobutyl-4,5-dihydropyrrolo[3,4-c]pyrazol-6(1H)-one]
- EC50 (HepG2 cells): 63.1 µM
- Papp at 3 h [3]: 39 ×10⁻⁶ cm/s
- EC50 (host THP-1 macrophages): 25.1 µM
- solubility ([4]; aqueous medium): 63 µM (≈ 24.8 µg/mL)
- PFI [5]: 8.4
- IC50 [2]: 0.3 µM
- HSA Binding (human serum albumin): 96.2%
- IC50 [6]: 0.6 µM
- EC50 [6]: 0.6 µM

Compound: CC(C)Cc1n[nH]c2c1C(c1ccc(Cl)cc1Cl)N(c1ccc(C(=O)N3CCCC3)cc1)C2=O (centres unmarked) [BUCMD00712]
- CC50 at 72 h ([1]; host B10R cells): 1.58 µM
- L. donovani amastigotes EC75 (μM, B10R cells) ([2]; B10R cells): >10 µM

Compound: COc1ccc(N2C(=O)c3[nH]nc(CC(C)C)c3C2c2ccc(F)cc2C)nc1 (centres unmarked) [BUCMD00646]
- CC50 at 72 h ([1]; host B10R cells): 12.6 µM
- L. donovani amastigotes EC75 (μM, B10R cells) ([2]; B10R cells): >10 µM

Compound: Cc1cc(F)ccc1C1c2c(CC(C)C)n[nH]c2C(=O)N1c1ccc(N2CCN(C)CC2)nc1 (centres unmarked) [BUCMD00717]
- CC50 at 72 h ([1]; host B10R cells): 7.94 µM
- L. donovani amastigotes EC75 (μM, B10R cells) ([2]; B10R cells): 1.0 µM

Compound: CC(C)Cc1n[nH]c2c1C(c1ccccc1C(F)(F)F)N(c1cncc(F)c1)C2=O (centres unmarked) [BUCMD00699]
- CC50 at 72 h ([1]; host B10R cells): 5.01 µM
- L. donovani amastigotes EC75 (μM, B10R cells) ([2]; B10R cells): 1.4 µM

Compound: COc1ccc(N2C(=O)c3[nH]nc(CC(C)C)c3C2c2ccccc2C)nc1 (centres unmarked) [BUCMD00645]
- CC50 at 72 h ([1]; host B10R cells): 20 µM
- L. donovani amastigotes EC75 (μM, B10R cells) ([2]; B10R cells): >10 µM

Compound: CC(C)Cc1n[nH]c2c1C(c1ccccc1F)N(c1ccc(N3CCN(C)CC3)nc1)C2=O (centres unmarked) [BUCMD00724]
- CC50 at 72 h ([1]; host B10R cells): 6.31 µM
- L. donovani amastigotes EC75 (μM, B10R cells) ([2]; B10R cells): >10 µM

Compound: COc1ccc(N2C(=O)c3[nH]nc(CC(C)C)c3C2c2ccc(F)cn2)cc1 (centres unmarked) [Compound S10]
- EC50 (HepG2 cells): > 100 µM
- Papp at 3 h [3]: 49 ×10⁻⁶ cm/s
- EC50 (host THP-1 macrophages): > 50 µM
- solubility [4, 7]: ≥ 343 µM
- PFI [5]: 7.7
- IC50 [2]: 3.4 µM
- HSA Binding (human serum albumin): 90.2%
- IC50 [6]: 10 µM
- EC50 [6]: 10 µM
